Assay results: patent US10337049B2, “Universal methylation profiling methods” (THE TRUSTEES OF COLUMBIA UNIVERSITY IN THE CITY OF NEW YORK, priority 2013, dated 2019)
Values belong to the compound of their own block, whether it stands above or below them.

Experiments:
[1] = Photo-irradiation of 16mer oligonucleotide, single base extension-MS analysis; type: physicochemical; conditions: primer 5′-TGCCGCACTC-3′, MS of elongated primer
Protocol: After HPLC purification, the modified 16mer was characterized by MALDI-TOF MS yielding a peak with MW of 5001, equal to the calculated mass. Then photo-irradiation of oligo [NT] ID NO: 1) was conducted to convert C* to a U analog. The outcome for conversion of C* in DNA was detected by using single base extension-MS analysis (FIG. 7). In this analysis, the photo-irradiated oligonucleotide was annealed with a primer […] 2964) (SEQ ID NO: 2), then incubated with ddNTPs and DNA polymerase. With the aid of DNA polymerase, one of the 4 ddNTPs can be selectively incorporated onto the 3' end of the primer. Photo-chemistry induced conversion of C to U should be able to direct the incorporation of ddA, resulting in an elongated primer with a MW of 3261, otherwise ddG should be incorporated giving an elongated primer of MW 3277. […] In the control experiment, photo-irradiation of the unmodified counterpart [NT] ID NO: 3) was conducted under the same conditions. […] We also measured possible photoirradiation-induced DNA damage. Under the conditions we used (300 nm, over 10 h) no DNA damage was observed.

[2] = Photo-irradiation of 5 position-modified deoxycytidine at about 300 nm, HPLC/UV/MS monitoring; type: physicochemical; conditions: for photochemical conversion to U analog on photo-irradiation: about 300 nm, aqueous solution, up to 12 h
Protocol: Photo-irradiation of 5-All-OMC at about 300 nm was then conducted in aqueous solution for up to 12 h, and the reaction products separated and monitored by HPLC and UV absorption.
Both C and 5-methyl-C remain intact after photo-irradiation under the same conditions. […] To further verify this conversion, 5-All-OMU was synthesized and characterized. […] The photochemically generated 5-All-OMU was also characterized by ^1HNMR.

[3] = Photoirradiation of 5-PhAll-OMC with 350 nm light in the presence of triplet sensitizer thioxanthone, HPLC analysis; type: physicochemical; conditions: 20 min
From the text: 5-PhAll-OMC was irradiated with 350 nm light in the presence of the triplet photosensitizer thioxanthone (TX).
The new product was found 1 mass unit higher than the starting material 5-PhAll-OMC, indicating possible U analog was generated from 5-PhAll-OMC. […] The ^13C NMR spectra, shown in FIG. 27, unambiguously confirm the formation of a [2+2] cycloadduct in either straight or cross configuration.

[4] = Laser flash photolysis, triplet energy transfer from thioxanthone; conditions: 355 nm pulsed laser, argon saturated acetonitrile, quencher 0 to 0.25 mM
pCa17 plasmid = test: in vivo functional assay / restriction protection assay of M.SssI variants (HpaII digestion of isolated plasmid); conditions: 200 ng plasmid, 1 U HpaII, 37° C., 1 hour, agarose gel

Compound: 5′-TACGACGAGTGCGGCA-3′: unmodified counterpart 16mer, control (DNA, backbone not given here)
ddNTP incorporated in single base extension after photo-irradiation of template [1]: ddGTP

photochemical conversion to U analog on photo-irradiation [2]: high efficiency
HPLC profile during photo-irradiation ([2]; after 3 h of irradiation): the main peak is the starting material
HPLC profile during photo-irradiation, starting material ([2]; after 12 h photo-irradiation): mostly consumed
Compound: C=CCOCc1cn([C@H]2C[C@H](O)[C@@H](CO)O2)c(=O)nc1N [5-All-OMC, 5-allyloxymethyl-dC]

photochemical conversion to U analog on photo-irradiation [2]: remain intact
Compound: Cc1c[nH]c(=O)nc1N [5-methyl-C, 5-methylcytosine]

photochemical conversion to U analog on photo-irradiation [2]: remain intact
ddNTP incorporated in single base extension after photo-irradiation of template [1]: ddATP
Compound: Nc1cc[nH]c(=O)n1 [C, Cytosine]

Compound: O=c1c2ccccc2sc2ccccc12 [TX, thioxanthone]
concentration of the sensitizer after photoirradiation [3]: remained unchanged

Compound: OCC=Cc1ccccc1 [cinnamyl alcohol]
rate constant of quenching of thioxanthone triplet (triplet energy transfer), kq [4]: 7.8e+09 M⁻¹ s⁻¹

Compound: wild-type: wild type CpG specific DNA methyltransferase M.SssI expressed from pCAL7
resistance of isolated M.SssI expressing plasmid to HpaII digestion (pCa17 plasmid): completely resistant
